Where two headings read alike, the source gives them in different places.
Tests used:
[1] = test system: BG-1 human ovarian cancer cells; assay: Inhibition of growth of BG-1 ovarian cancer cells (MTT), with MacSynergy II synergy analysis; assay type: cell-based; details: for inhibition at 0.005 µM / inhibition at 0.01 µM / inhibition at 0.05 µM / inhibition at 0.1 µM / inhibition at 0.2 µM / inhibition at 0.4 µM: Homo sapiens, read-out: Percent Inhibition; for Percent Inhibition: Table G, ERA-923 0 nM
Procedure: In these test procedures, rapamycin 42-ester with 3-hydroxy-2-(hydroxymethyl)-2-methylpropionic acid was used as a representative rapamycin, and 2-(4-hydroxy-phenyl)-3-methyl-1-[4-(2-piperdin-1-yl-ethoxy)-benzyl-1 H-indol-5-ol, raloxifene, and 4-hydroxytamoxifen were used as representative antiestrogens.
One day before the experiment, cells were plated in 96-well plates at a cell density of 2,500 cells/well in IMEM medium supplemented with 10% fetal bovine serum. The next day, cells were treated with various concentrations of antiestrogen and rapamycin 42-ester with 3-hydroxy-2-(hydroxymethyl)-2-methylpropionic acid (referred to as CCI-779 in the tables below). Five or six-days later, cell growth was monitored.

[2] = test system: MCF-7 tumors; assay: Growth of MCF-7 breast carcinoma implanted in nude mice; assay type: in vivo; details: for Tumor size (mean ± standard error): 5 mg/kg CCI-779 PO q2d days 1-9
Procedure: In the third standard pharmacological test procedure, mice implanted with MCF-7 tumors were treated with a combination of ERA-923 and CCI-779. […] ERA-923 was dissolved in 1% Tween 80 and 0.9% NaCl Injection USP. Drug was aliquoted into daily doses using 10.0 ml glass bottles and frozen at −20° C. until needed. CCI-779 was made fresh using a 5% ETOH, 4.9% Phosal and 0.1% Tween 80 in Sterile Water. 0.2 ml of each drug was given orally starting the day after tumor implantation. ERA 923 was given daily for the duration of the experiment and CCI-779 was given every other day for the first 10 days. The control vehicles were given on the same regime as the drugs. MCF7 cells were cultured in IMEM containing 5% Fetal Bovine Serum with passages varying from 2-20. After trypsinization tumors were resuspended in IMEM with 2% Serum at a 1:1 ratio with Matrigel. 10 million cells were injected subcutaneously into the mammary tissue of each mouse using a 1.0 ml tuberculin syringe with a 23 3/4 gauge needle. Five to six week old female ovariectomized athymic nu/nu mice (Charles River Labs: Wilmington, Mass.) weighing from 20.0-23.0 g were used. The animals were housed 5 to a cage in a Microisolator Open Rack System (Lab Products: Maywood, N.J.). Each mouse received a 17β-Estradiol pellet (0.72 mg/pellet-60 day release). The pellets were injected with a 10 gauge trochar into the lateral side of the neck between the ear and the shoulder 1-2 weeks prior to tumor injection. Control groups were 15 mice/vehicle whereas the drug groups were 10 mice/drug. Tumors were measured weekly by means of solar calipers (Cole-Parmer Instuments: Vernon Hills, Ill.) and tumor weights were estimated from tumor diameters by the following formula:
Tumor weight (mg)=tumor length (mm)×tumor width (mm)^2/2.
Mice were euthanized 36 days after tumor injection by CO2 inhalation. […] Nude mice bearing MCF-7 tumors were given ERA-923, CCI-779 or the combination of both drugs.

[3] = test system: MCF-7 human breast cancer cells; assay: Inhibition of growth of MCF-7 breast cancer cells (MTT), with MacSynergy II synergy analysis; details: for inhibition at 0.005 µM / inhibition at 0.01 µM / inhibition at 0.05 µM / inhibition at 0.1 µM / inhibition at 0.2 µM / inhibition at 0.4 µM: Homo sapiens;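 on all read-outs here: cells treated five or six days with single agents or combinations, growth read by MTT, synergy surface equals observed % inhibition minus Bliss additive prediction, values under 0% signal antagonism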

Structure (SMILES): CO[C@H]1C[C@@H]2CC[C@@H](C)[C@@](O)(O2)C(=O)C(=O)N2CCCC[C@H]2C(=O)O[C@H]([C@H](C)C[C@@H]2CC[C@@H](OC(=O)C(C)(CO)CO)[C@H](OC)C2)CC(=O)[C@H](C)/C=C(\C)[C@@H](O)[C@@H](OC)C(=O)[C@H](C)C[C@H](C)/C=C/C=C/C=C/1C [CCI-779, rapamycin 42-ester with 3-hydroxy-2-(hydroxymethyl)-2-methylpropionic acid]
- inhibition at 0.005 µM ([1]; Table H, CCI-779 5 nM, 4-Hydroxytamoxifen 0 nM): 21.4%
- inhibition at 0.01 µM ([1]; Table H, CCI-779 10 nM, 4-Hydroxytamoxifen 0 nM): 24.9%
- inhibition at 0.05 µM ([1]; Table H, CCI-779 50 nM, 4-Hydroxytamoxifen 0 nM): 56.3%
- inhibition at 0.1 µM ([1]; Table H, CCI-779 100 nM, 4-Hydroxytamoxifen 0 nM): 56.4%
- inhibition at 0.2 µM ([1]; Table H, CCI-779 200 nM, 4-Hydroxytamoxifen 0 nM): 60.7%
- inhibition at 0.4 µM ([1]; Table H, CCI-779 400 nM, 4-Hydroxytamoxifen 0 nM): 64.9%
- inhibition at 0.005 µM ([1]; Table I, CCI-779 5 nM, Raloxifene 0 nM): 8.26%
- inhibition at 0.01 µM ([1]; Table I, CCI-779 10 nM, Raloxifene 0 nM): 12.5%
- inhibition at 0.05 µM ([1]; Table I, CCI-779 50 nM, Raloxifene 0 nM): 37.7%
- inhibition at 0.1 µM ([1]; Table I, CCI-779 100 nM, Raloxifene 0 nM): 42.1%
- inhibition at 0.2 µM ([1]; Table I, CCI-779 200 nM, Raloxifene 0 nM): 48.4%
- inhibition at 0.4 µM ([1]; Table I, CCI-779 400 nM, Raloxifene 0 nM): 53%
- Percent Inhibition ([1]; CCI-779 5 nM): 19.98%
- Percent Inhibition ([1]; CCI-779 10 nM): 22.68%
- Percent Inhibition ([1]; CCI-779 50 nM): 49.76%
- Percent Inhibition ([1]; CCI-779 100 nM): 58.79%
- Percent Inhibition ([1]; CCI-779 200 nM): 55.65%
- Percent Inhibition ([1]; CCI-779 400 nM): 61.94%
- Tumor size (mean ± standard error) ([2]; day 14 after tumor implantation): 260 ± 18 mg
- Tumor size (mean ± standard error) ([2]; day 21 after tumor implantation): 485 ± 53 mg
- Tumor size (mean ± standard error) ([2]; day 28 after tumor implantation): 704 ± 63 mg
- Tumor size (mean ± standard error) ([2]; day 36 after tumor implantation): 1123 ± 134 mg
- inhibition of tumor growth ([2]; nude mice bearing MCF-7 tumors, growth inhibition=experimental value−200 (baseline)/control value −200): approximately 35%
- increase of growth inhibition as estimated by the IC50 ([3]; CCI-779 in the presence of non-inhibitory concentrations of ERA-923): approximately 40 fold
- inhibition at 0.005 µM ([3]; MCF7, read-out: Percent Inhibition, Table B, CCI-779 5 nM, 4-Hydroxytamoxifen 0 nM): -16.5%
- inhibition at 0.01 µM ([3]; MCF7, read-out: Percent Inhibition, Table B, CCI-779 10 nM, 4-Hydroxytamoxifen 0 nM): 1.47%
- inhibition at 0.05 µM ([3]; MCF7, read-out: Percent Inhibition, Table B, CCI-779 50 nM, 4-Hydroxytamoxifen 0 nM): 15%
- inhibition at 0.1 µM ([3]; MCF7, read-out: Percent Inhibition, Table B, CCI-779 100 nM, 4-Hydroxytamoxifen 0 nM): 24.6%
- inhibition at 0.2 µM ([3]; MCF7, read-out: Percent Inhibition, Table B, CCI-779 200 nM, 4-Hydroxytamoxifen 0 nM): 25.2%
- inhibition at 0.4 µM ([3]; MCF7, read-out: Percent Inhibition, Table B, CCI-779 400 nM, 4-Hydroxytamoxifen 0 nM): 34%
- inhibition at 0.005 µM ([3]; MCF7, read-out: Percent Inhibition, Table C, CCI-779 5 nM, Raloxifene 0 nM): -13.8%
- inhibition at 0.01 µM ([3]; MCF7, read-out: Percent Inhibition, Table C, CCI-779 10 nM, Raloxifene 0 nM): -3.3%
- inhibition at 0.05 µM ([3]; MCF7, read-out: Percent Inhibition, Table C, CCI-779 50 nM, Raloxifene 0 nM): 35.3%
- inhibition at 0.1 µM ([3]; MCF7, read-out: Percent Inhibition, Table C, CCI-779 100 nM, Raloxifene 0 nM): 38.1%
- inhibition at 0.2 µM ([3]; MCF7, read-out: Percent Inhibition, Table C, CCI-779 200 nM, Raloxifene 0 nM): 38.1%
- inhibition at 0.4 µM ([3]; MCF7, read-out: Percent Inhibition, Table C, CCI-779 400 nM, Raloxifene 0 nM): 39.8%
- inhibition at 0.005 µM ([3]; MCF7, read-out: Percent Inhibition, Table E, CCI-779 0 nM + CCI-779 5 nM): -4.19%
- inhibition at 0.01 µM ([3]; MCF7, read-out: Percent Inhibition, Table E, CCI-779 0 nM + CCI-779 10 nM): 10.2%
- inhibition at 0.05 µM ([3]; MCF7, read-out: Percent Inhibition, Table E, CCI-779 0 nM + CCI-779 50 nM): 49.8%
- inhibition at 0.1 µM ([3]; MCF7, read-out: Percent Inhibition, Table E, CCI-779 0 nM + CCI-779 100 nM): 46.8%
- inhibition at 0.2 µM ([3]; MCF7, read-out: Percent Inhibition, Table E, CCI-779 0 nM + CCI-779 200 nM): 53.5%
- inhibition at 0.4 µM ([3]; MCF7, read-out: Percent Inhibition, Table E, CCI-779 0 nM + CCI-779 400 nM): 55.3%
- inhibition at 0.005 µM ([3]; MCF7, read-out: Percent Inhibition, Table E, CCI-779 5 nM + CCI-779 5 nM): 13.2%
- inhibition at 0.01 µM ([3]; MCF7, read-out: Percent Inhibition, Table E, CCI-779 5 nM + CCI-779 10 nM): 18.6%
- inhibition at 0.05 µM ([3]; MCF7, read-out: Percent Inhibition, Table E, CCI-779 5 nM + CCI-779 50 nM): 49.2%
